Reference: doi:[…]/2021.10.07.463234v2 (biorxiv, 2021)
Structures can show the parent of a compound that is named as a salt.

target: SARS-CoV-2 Mac1 (Severe acute respiratory syndrome coronavirus 2, UniProt P0DTD1); test: biochemical; settings: 100 µM; inhibitor

| Structure (SMILES) | %inhibition |
| --- | --- |
| Cc1c(-c2ccc(O)cc2)n(Cc2ccc(OCCN3CCCCCC3)cc2)c2ccc(O)cc12 [Bazedoxifene HCl] | 0% |
| O=C(O)c1ccccc1 [Benzoic Acid] | 1.824% |
| CC(=O)O[C@@]12CO[C@@H]1C[C@H](O)[C@@]1(C)C(=O)[C@H](O)C3=C(C)[C@@H](OC(=O)[C@H](O)[C@@H](NC(=O)OC(C)(C)C)c4ccccc4)C[C@@](O)([C@@H](OC(=O)c4ccccc4)[C@H]21)C3(C)C [Docetaxel Trihydrate] | 6.628% |
| CC1(C)S[C@@H]2[C@H](NC(=O)Cc3ccccc3)C(=O)N2[C@H]1C(=O)O [Benzylpenicillin potassium] | 8.229% |
| Cc1cc(NS(=O)(=O)c2ccc(N)cc2)no1 [Sulfamethoxazole sodium] | 0% |
| CCN(CC)CCCC(C)Nc1ccnc2cc(Cl)ccc12 (centres unmarked) [Chloroquine Phosphate] | 4.168% |
| CC(=O)NS(=O)(=O)c1ccc(N)cc1 [Sulfacetamide sodium salt hydrate] | 8.356% |
| CCCC(CCC)C(=O)O [Valproic acid] | 0% |

same assay, conditions: read-out: %inhibition

| Structure (SMILES) | inhibition at 100 µM |
| --- | --- |
| Cc1ccccc1N1CCN(CCc2nnc3n2CCCC3)CC1 [Dapiprazole Hydrochloride] | 12.7% |
| O=C(Nc1cc(Cl)cc(Cl)c1O)c1c(O)c(Cl)cc(Cl)c1Cl [Oxyclozanide] | 8.75% |
| NCC1(CC(=O)O)CCCCC1 [Gabapentin] | 0% |
| COC(=O)N[C@H](C(=O)N1CCC[C@H]1c1nc(-c2ccc3c(c2)O[C@@H](c2ccccc2)n2c-3cc3cc(-c4c[nH]c([C@@H]5CCCN5C(=O)[C@@H](NC(=O)OC)C(C)C)n4)ccc32)c[nH]1)C(C)C [Elbasvir] | 8.16% |
| CC(C)Cn1cnc2c(N)nc3ccccc3c21 [Imiquimod] | 26.3% |
| O=C(O[C@H]1C[N+]2(CCCOc3ccccc3)CCC1CC2)C(O)(c1cccs1)c1cccs1 [Aclidinium Bromide] | 0% |
| Cc1ccccc1OCC(O)CO (centres unmarked) [Mephenesin] | 7.81% |
| CC(C(=O)O)c1ccc(-c2ccccc2)c(F)c1 (centres unmarked) [Flurbiprofen] | 2.76% |
| CC(O)C(=O)O (centres unmarked) [Ammonium lactate] | 16.4% |
| CC(=O)NS(=O)(=O)c1ccc(NC(=O)c2ccccc2C(=O)O)cc1 [Phthalylsulfacetamide] | 6.67% |
| COc1ccc(C(Cl)=C(c2ccc(OC)cc2)c2ccc(OC)cc2)cc1 [Chlorotrianisene] | 0% |
| CC(=O)OCC1=C(C(=O)O)N2C(=O)[C@@H](NC(=O)Cc3cccs3)[C@H]2SC1 [Cephalothin] | 8.54% |
| COc1cc2ncnc(Nc3ccc(F)c(Cl)c3)c2cc1NC(=O)/C=C/CN1CCCCC1 [Dacomitinib (PF299804, PF299)] | 3.46% |
| CC(=O)OCC(COC(C)=O)OC(C)=O [Triacetin] | 3.58% |
| Cc1ccsc1C(=CCCN1CCC[C@@H](C(=O)O)C1)c1sccc1C [Tiagabine] | 9.64% |
| C#C[C@]1(OC(C)=O)CC[C@H]2[C@@H]3CCC4=C[C@@H](OC(C)=O)CC[C@@H]4[C@H]3CC[C@@]21C [Ethynodiol diacetate] | 0% |
| CC(=O)Oc1cc(C(F)(F)F)ccc1C(=O)O [Triflusal] | 5.82% |
| N#Cc1ccc(Oc2ccc3c(c2)COB3O)cc1 [Crisaborole (AN2728)] | 10% |
| C[C@]12CCC(=O)C(O)=C1CC[C@@H]1[C@@H]2CC[C@]2(C)C(=O)CC[C@@H]12 [Formestane] | 0% |
| CC(=O)Oc1ccccc1C(=O)Nc1ncc([N+](=O)[O-])s1 [Nitazoxanide] | 0% |
| CCC[S+]([O-])c1ccc2[nH]c(NC(=O)OC)nc2c1 (centres unmarked) [Albendazole Oxide] | 28% |
| NC1=NCC2c3ccccc3Cc3ccccc3N12 (centres unmarked) [Epinastine HCl] | 4.62% |
| CCOC(=O)[C@H](CCc1ccccc1)N[C@H]1CS[C@H](c2cccs2)CN(CC(=O)O)C1=O [Temocapril HCl] | 0% |

| Structure (SMILES) | inhibition at 100 µM |
| --- | --- |
| COC1=C(OC)C(=O)C(CCCCCCCCCCO)=C(C)C1=O [Idebenone] | 7.11% |
| CCCCC(=O)O[C@H]1CC[C@H]2[C@@H]3CCc4cc(O)ccc4[C@H]3CC[C@]12C [Estradiol valerate] | 3.33% |
| Cc1ccc2c(c1)[C@]13CCCC[C@@H]1[C@H](C2)N(C)CC3 [Dimemorfan phosphate] | 0% |
| CC(C)(Oc1ccc(Cl)cc1)C(=O)OCCOC(=O)c1cccnc1 [Etofibrate] | 4.59% |
| O=C1CCCC(=O)C1C(=O)c1ccc(C(F)(F)F)cc1[N+](=O)[O-] [Nitisinone] | 2.19% |
| CNNCc1ccc(C(=O)NC(C)C)cc1 [Procarbazine HCl] | 0% |
| C=CCNC1=C2C[C@@H](C)C[C@H](OC)[C@H](O)[C@@H](C)/C=C(\C)[C@H](OC(N)=O)[C@@H](OC)/C=C\C=C(/C)C(=O)NC(=CC1=O)C2=O [Tanespimycin (17-AAG)] | 3.81% |
| CC(C)Nc1cc(-c2c[nH]c(C(=O)N[C@H](CO)c3cccc(Cl)c3)c2)c(Cl)cn1 [Ulixertinib (BVD-523, VRT752271)] | 24.8% |
| CN1C(C)(C)CCCC1(C)C [Pempidine] | 28.2% |
| Cc1cccc(N(C)C(=S)Oc2ccc3ccccc3c2)c1 [Tolnaftate] | 0% |
| CCC(=O)c1c(O)cc(O)cc1O [Flopropione] | 7.24% |
| CCNC(=O)[C@@H]1CCCN1C(=O)[C@H](CCCN=C(N)N)NC(=O)[C@H](CC(C)C)NC(=O)[C@@H](C)NC(=O)[C@H](Cc1ccc(O)cc1)NC(=O)[C@H](CO)NC(=O)[C@H](Cc1c[nH]c2ccccc12)NC(=O)[C@H](Cc1cnc[nH]1)NC(=O)[C@@H]1CCC(=O)N1 [Alarelin Acetate] | 0.14% |
| CC(=O)CC/C=C(\C)CC/C=C(\C)CC/C=C(\C)CCC=C(C)C [Teprenone] | 30.7% |
| CC1(C)[C@@H](O[C@H]2O[C@H](C(=O)O)[C@@H](O)[C@H](O)[C@H]2O[C@@H]2O[C@H](C(=O)O)[C@@H](O)[C@H](O)[C@H]2O)CC[C@]2(C)[C@H]3C(=O)C=C4[C@@H]5C[C@@](C)(C(=O)O)CC[C@]5(C)CC[C@@]4(C)[C@]3(C)CC[C@@H]12 [Ammonium Glycyrrhizinate] | 0% |
| CN1CCN(CCOc2cc(OC3CCOCC3)c3c(Nc4c(Cl)ccc5c4OCO5)ncnc3c2)CC1 [Saracatinib (AZD0530)] | 32.3% |
| C[C@]1(O)C[C@@H](c2nc(-c3ccc4ccc(-c5ccccc5)nc4c3)c3c(N)nccn32)C1 [Linsitinib (OSI-906)] | 9.54% |
| CC1CC(OC(=O)C(O)c2ccccc2)CC(C)(C)C1 (centres unmarked) [Cyclandelate] | 0% |
| CC(C)[C@H](O)C(=O)N[C@@H](C)C(=O)N[C@@H]1C(=O)N(C)CCc2ccccc21 [Semagacestat (LY450139)] | 0% |
| CN/C(=N\CCSCc1nc[nH]c1C)NC#N [Cimetidine] | 20.9% |
| CC(=O)[C@H]1CC[C@H]2[C@@H]3CCC4=CC(=O)CC[C@]4(C)[C@H]3CC[C@]12C [Progesterone] | 1.73% |
| CCOc1cc2ncc(C#N)c(Nc3ccc(OCc4ccccn4)c(Cl)c3)c2cc1NC(=O)/C=C/CN(C)C [Neratinib (HKI-272)] | 4.82% |
| O=C(O)c1nn(Cc2ccc(Cl)cc2Cl)c2ccccc12 [Lonidamine] | 7.38% |
